The results in this text go back to article PMC9027532, “Preclinical Pharmacokinetic Studies of a Novel Diuretic Inhibiting Urea Transporters” (Molecules, 2022).

The nature of this data set: in vitro. The format is in vitro ADME. The conditions noted are these: plasma. On the procedure: The plasma protein binding (PPB) and blood plasma ratio (BPR) are crucial parameters influencing the drug distribution and elimination in plasma. The PPB profile of 25a was evaluated by equilibrium dialysis, a classic method to assess the interactions of small molecules with proteins. The PPB of 25a was tested at 50, 500, and 2500 ng/mL (Table 7). […] When considering the allometric scaling of PK parameters, the species difference of protein binding between humans and rats should be considered.
The plasma protein binding (PPB) ratio of 25a was assessed via equilibrium dialysis in SD rats and human plasma. Four hundred microliters of plasma containing 50, 500, or 2500 ng/mL 25a were loaded into the dialysis bags (plasma side), and the bags were placed into tubes containing 4 mL of the dialysis buffer (buffer side). The tubes were then rotated at approximately 100 rpm in a humidified incubator with 5% CO2 at 37 ± 1 °C for 5 h.
After the 5 h dialysis, aliquots of 50 μL samples were taken from both the buffer and the plasma sides. An equal volume of the opposite blank matrix (buffer or plasma) was added to each sample to reach a final volume of 100 μL with a volume ratio of plasma to dialysis buffer at 1:1 (v/v). […] The PPB ratio (%) was calculated by PPB% = 100% × (1 − Conc.buffer side/Conc.plasma side).

`CC(=O)CC(c1ccccc1)c1c(O)c2ccccc2oc1=O` (stereo not shown) [warfarin]: the fraction unbound at 5 h was 0.015.
